The test system of experiment [1] is agrégation plaquettaire induite par le collagène. The experiment is described as follows: In vitro collagen-induced platelet aggregation in platelet-rich plasma (Born turbidimetric technique). Format: cell-based, humain. As to conditions: for inhibition at 100 µM: concentration 100 µM, inhibition of maximal aggregation amplitude versus control, read-out: % d'inhibition; for IC50: 10 min. An excerpt:
(§1) Les études in vitro et ex vivo de l'activité antiagrégante ont été réalisées selon la technique turbidiurétrique de Born.
Les études in vitro ont été réalisées sur du plasma riche en plaquettes (PRP) préparé à partir de sang veineux humain.
Les diverses solutions des produits à tester ont été préparées extemporanément. Les CM 7753, 7611, 7640, 7921, 7954, - 40018, 40020 ont été dissous à une concentration de 2 x 10^-2 M dans l'acétone.
Des solutions aqueuses à 2 x 10 ^-3 M ont été préparées pour les CM 40169, 40178, 2 µl des solutions acétoniques des produits ou 40 µl des solutions aqueuses sont incubés pendant 10 min à 37°C avec, respectivement, 388 et 350 µl de PRP. Après cette période d'incubation, 10 µl de la solution de collagène à 40 µg/ml sont additionnés. Pour les contrôles, 2 µl d'acétone ou 40 µl d'eau distillée sont utilisés.
(§2) L'agrégation plaquettaire a été quantifiée par la détermination graphique de l'amplitude maximale d'agrégation (AM).
(§3) Les résultats sont exprimés en % d'inhibition de ce paramètre calculé par rapport au contrôle (100 % d'agrégation). Résultats

The test system is the same in experiment [2]. The experiment is described as follows: Ex vivo collagen-induced platelet aggregation after oral dosing (Born technique). Format: in vivo, babouin. Conditions: Papio, 120 h, four baboons, 50 mg/kg/j oral, after 5 days of treatment, read-out: % d'inhibition. The procedure:
as §1
(§4) Les études ex vivo chez le babouin ont porté uniquement sur l'activité antiagrégante du CM 7753. Dans ce cas, le CM 7753 est administré par voie buccale à raison de 50 mg/kg/j pendant une période de 5 jours.
(§5) Les prélèvements sanguins pour l'analyse de l'agrégation plaquettaire ont été effectués avant l'administration du produit, 2 h après l'administration de 50 mg/kg au jour 1 et 2 h après la dernière administration au jour 5.
as §2, §3

Experiment [3] has as its system tachycardie ventriculaire. The experiment is described as follows: Ventricular arrhythmia model: coronary metal coil, myocardial infarction, telemetered ECG. It counts as in vivo, chiens. As to conditions: 50 mg/kg P.O., dogs; for Effet sur la tachycardie ventriculaire: rythme sinusal ou amélioration: sinus rhythm restored or improvement of the ratio of abnormal to sinus complexes. An excerpt: Le pouvoir antiarythmique de ces molécules a été apprécié sur un modèle animal d'arythmie ventriculaire.
Des chiens bâtards sont anesthésiés puis soumis à la mise en place, par cathétérisme rétrograde, d'une spire métallique dans le lit coronarien. Dans le même temps, un micro-émetteur modulateur de fréquence est fixé au dos de l'animal et relié à deux électrodes précordiales.
L'animal remis dans son box accuse alors une thrombose progressive de l'artère interventriculaire antérieure. Ainsi, se constitue un infarctus myocardique localisé et transmural, générateur d'une activité électrique anormale, mais répétitive : tachycardie ventriculaire.
Dans cet état, les drogues sont administrées per os (P.O.) et le système télémétré permet de suivre en temps réel l'évolution de la disrythmie.
Un comptage des complexes systoliques sinusaux et pathologies est assuré en permanence par des procédés électroniques.
Ainsi, peut-on quantifier la qualité et la durée d'action du produit.
L'activité des produits essayés sur la tachycardie ventriculaire est exprimée soit par le rétablissement du rythme sinusal, soit par une amélioration notable du rapport : • nombre de complexes anormaux
nombre de complexes sinusaux

The subject of another experiment is ADP. The experiment is described as follows: Ex vivo ADP-induced platelet aggregation after oral dosing (Born technique). Format: in vivo, babouin. Conditions: baboons, 50 mg/kg/j oral. As for the experimental part:
as §1, §4, §5, §2, §3

The structures appear in SMILES notation. Like-named read-outs stand apart in the source and are kept apart here.

`CCc1ccc(CC)n1C(CCN(C(C)C)C(C)C)C(N)=O` (stereo not drawn) [CM 40020]: the inhibition at 100 µM in experiment [1] (human PRP, collagen) was in the range of 20 to 30%.
Consider `Cc1ccc(C)n1C(CCN1CCN2CCCC2C1)C(N)=O` (stereo not drawn) [CM 40018, (Diméthyl-2,5 pyrrolyl)-1 (diaza-1,4 bicyclo[4.3.0]-nonyl-4)-4 butyramide], for which the inhibition at 100 µM in experiment [1] (human PRP, collagen) was in the range of 20 to 30%.
For the compound `Cc1ccc(C)n1C(CCN(C(C)C)C(C)C)C(N)=O` (stereo not drawn) [CM 7753, (Diméthyl-2,5 pyrrolyl-1)-2 diisopropylamino-4 butyramide], the inhibition at 50 mg/kg in experiment [2] was 100%. Besides, the “Effet sur la tachycardie ventriculaire: rythme sinusal ou amélioration” value in experiment [3] turned out to be 90%. Further, the “activité antiagrégante vis-à-vis de l'ADP” value in the experiment on ADP is on record as “activité antiagrégante de moindre importance”. Also, the IC50 in experiment [1] (human PRP, 10 min incubation at 37°C, collagen, approximate value, read-out: concentration qui inhibe à 50 % l'agrégation plaquettaire) was about 100 µM.
For the compound `CC(C)N(CCC(C(N)=O)n1cccc1)C(C)C` (stereo not drawn) [CM 7921], in experiment [1] (human PRP, collagen), the inhibition at 100 µM was 20 to 30%.
The same measure, in the same setting: in the case of `CCC(C)N(CCC(C(N)=O)n1c(C)ccc1C)C(C)CC` (stereo not drawn) [CM 40178] it was 20 to 30%.
As for `CC(C)N(CCC(C(N)=O)(c1ccccn1)n1cccc1)C(C)C` (stereo not drawn) [CM 7954, (Pyridyl-2)-2 (pyrrolyl-l)-2 diisopropylamino-4 butyramide], the IC50 in experiment [1] (read-out: concentration qui inhibe à 50 % l'agrégation plaquettaire) is about 100 µM.
With `CC(C)N(CCC(C(N)=O)(c1ccccc1)n1cccc1)C(C)C` (stereo not drawn) [CM 7611, Phényl-2 (pyrrolyl-l)-2 diisopropylamino-4 butyramide], the “Effet sur la tachycardie ventriculaire: rythme sinusal ou amélioration” value in experiment [3] is 70-90%. The IC50 in experiment [1] was about 30 µM.
Turning to `Cc1ccc(C)n1C(CCN(C(C)C)C1CCCCC1)C(N)=O` (stereo not drawn) [CM 40169], the inhibition at 100 µM in experiment [1] (human PRP, collagen) lay in the range of 20 to 30%.
Consider `Cc1ccc(C)n1C(CCN(C(C)C)C(C)C)(C(N)=O)c1ccccc1` (stereo not drawn) [CM 7640], for which, in experiment [3], the “Effet sur la tachycardie ventriculaire: duration of effect” value is reported as “Rythme sinusal ou amélioration à 90 % durant 90 min” and the “Effet sur la tachycardie ventriculaire: rythme sinusal ou amélioration” value is reported as “Rythme sinusal ou amélioration à 90 % durant 90 min”. Moreover, in experiment [1], the IC50 was about 30 µM.

(Values after patent publication EP0054593A1, “Myocardium protecting pyrrole derivatives with anti-arythmic and anti-platelet aggregation activity, process for their preparation and medicines containing them” (SANOFI S.A., priority 1980, dated 1982).)
